One test deals with Ornithine Decarboxylase. Nature of the test: Ornithine decarboxylase (ODC) assay: inhibition of TPA induction of ODC in mouse skin. Particulars: topical, 1 hour before TPA (17 nmol). Format: in vivo, mouse (female Charles River CD-1). On the procedure:
(§1) The ODC assay measures a compound's ability to prevent the induction of ODC. The tracheal organ culture assay measures a compound's ability to reverse keratinization.
The ODC assay is carried out as follows. Female Charles River CD-1 mice from Charles River Breeding Laboratories, Wilmington, Mass., are used (age 7 to 9 weeks). The dorsal hair of the mice is shaved 1 to 2 days before testing, and only mice showing no hair regrowth are used. A single dose of 12-O-tetradecanoylphorbol-13-acetate (TPA) (10.5 μg, 17 nmol) in 0.2 mL of acetone is applied topically to the back of each mouse. The test compound, at one of three dose levels (1.7, 17 and 170 nmol), dissolved in 0.2 mL of acetone is applied 1 hour before the TPA treatment to the test groups; the control group is treated with acetone alone. The mice are killed by cervical dislocations five hours after TPA treatment. Determinations are done in triplicate.
The epidermis is obtained from the sacrificed animals. To obtain sufficient material, the dorsal skins from 2 to 3 mice in each treatment group are pooled. The depilatory agent Nudit® (Helena Rubinstein, N.Y.) is applied to the shaved area of the skin; after 5 minutes, it is washed off thoroughly with cold tap water. Then the skin is excised and plunged immediately into ice-cold water; it is then placed in a 55° C. water bath for 30 seconds and reimmersed in ice-cold water for at least another 30 seconds. The skin is placed epidermis side up on a cold plate, and the epidermis is scraped off with a razor blade. The pooled epidermal sheets are homogenized (Polytron PT-10 homogenizer) at 0° to 4° C. for 15-20 seconds in 50 mM sodium phosphate and 0.1 mM ethylenediaminetetraacetic acid (EDTA), at a volume of 1 mL/skin.
The supernatant fraction remaining after centrifugation of the homogenate at 10,000×g for 30 seconds at 0° C. is used for the enzyme assay. Enzyme activity is determined using the microassay for ODC as described by Verma and Boutwell to measure the release of ^14 CO2 from DL-[1-^14 C]-ornithine (58 mCi/mmol) after incubation with the 10,000×g supernatant. The incubations are carried out by decanting, with a Pasteur pipette, 100 μL of the supernatant containing 100 to 120 μg of protein into two or three 15-mL Corex tubes in a shaking water bath at 37° C. The assay mixture in the tubes consists of 50 μL of 100 mM sodium phosphate buffer (pH 7.2), 10 μL of 4 mM pyridoxal phosphate, 40 μL of 25 mM dithiothreitol, and 1 μL of 0.1 M EDTA. The center wells in the tubes are filled with 200 μL of a 2:1 solution (v/v) of ethanolamine:2-methoxyethanol. The reaction is started by adding 50 μL of substrate (0.5 μCi of DL-[1-^14 C]-ornithine in 2 mM cold ornithine) at 1-minute intervals by injection to each of the stoppered tubes. Incubations are routinely carried out at 37° C. for 30 to 60 minutes. The reaction is stopped by addition of 0.5 ml of 2M citric acid, and incubation is continued for an additional hour without heating to ensure complete absorption of ^14 CO2.
Radioactivity is measured using a toluene-based scintillant (4 g of PPO and 50 mg of POPOP/L of toluene) in a Beckman LS-250 liquid scintillation counter. Enzyme activity is determined in triplicate and expressed as nanomoles of CO2 released in 30 minutes per milligram of protein. Enzyme activity is linear for the protein concentration used. The protein concentrations of the epidermal extracts are determined by the Lowry procedure, using bovine serum albumin as the standard.

Test [1] concerns Hamster Tracheal Organ Culture (keratinization). Put plainly: Tracheal organ culture assay (reversal of keratinization). The test is classed as cell-based. Particulars: 10 days in culture. The method, then:
as §1
The tracheal organ culture assay is carried out as follows. Tracheas are taken from hamsters that are in very early stages of vitamin A deficiency and placed in organ culture. At the time of culture, the animals are still gaining weight; the tracheal epithelium is generally low columnar or cuboidal, with only occasional patches of squamous metaplasia. Each trachea is opened from the larynxto the carina along the membranous dorsal wall and cultured in a serum-free medium (CMRL-1066; with crystalline bovine insulin, 0.1 μg/ml; hydrocortisone hemisuccinate, 0.1 μg/ml; glutamine, 2 mM; penicillin, 100 units/ml; and streptomycin, 100 μg/ml, added). Cultures are gassed with 50% oxygen, 45% nitrogen, and 5% CO2. The culture dishes are rocked at 35.5-36.0 degrees to allow the tracheas contact with both gas and medium. All tracheas are grown in medium containing no retinoid for the first 3 days. At the end of 3 days, some tracheas are harvested; almost all of these tracheas have significant squamous metaplasia, and approximately 60% have keratinized lesions. The remaining tracheas are then divided into different groups which are treated with either: (1) retinoid dissolved in dimethylsulfoxide (final concentration of DMSO in culture medium is never greater than 0.1%) or (2) an equivalent amount of DMSO alone. Culture medium is changed three times a week, and all of the remaining tracheas are harvested at the end of 10 days in culture. Tracheas are fixed in 10% buffered formalin and embedded in paraffin. Cross sections of five micrometers are made through the mid-portion, stained with hematoxylin and eosin, and then scored with a microscope for the presence of keratin and keratohyaline granules, both of which are found in approximately 90% of control cultures that received no retinoid for the entire 10 day culture period.

Test [2] has as its system ornithine decarboxylase (ODC). Particulars: literature, copending application or unpublished data; cited from earlier work.

The structures appear in SMILES notation.

In the case of `CC1(C)CCC(C)(C)c2cc(-c3ccc4cc(C(=O)O)ccc4c3)ccc21` [6-(1,2,3,4-Tetrahydro-1,1,4,4-tetramethyl-6-naphthyl)-2-naphthoic acid], the “Inhibition of Induction of Ornithine Decarboxylase by 12-O-Tetradecanoylphorbol-13-acetate in Mouse Skin, % Inhibition of Control” value (“Inhibition … % Inhibition of Control” for short) in the test on Ornithine Decarboxylase (Dose 1.7 nmol) came out at 56%; in the test on Ornithine Decarboxylase (Dose 17 nmol), 80%. Also, the “Reversal of Keratinization in Hamster Tracheal Organ Culture, Active Cultures (%)” value in test [1] (Conc 10^-9 M) is reported as 100%; in test [1] (Conc 10^-10 M) it was 100%; in test [1] (Conc 10^-11 M), 71%. Further, the figures for the “Reversal of Keratinization in Hamster Tracheal Organ Culture, Active/Total Cultures” value in test [1] (Conc 10^-9 M), in test [1] (Conc 10^-10 M) and in test [1] (Conc 10^-11 M) were 7/7, 7/7 and 5/7, respectively.
As to `CC1=C(C=Cc2ccc3cc(C(=O)O)ccc3c2)C(C)(C)CCC1` [6-[2-(2,6,6-trimethyl-1-cyclohexen-1-yl)ethenyl]-2-naphthoic acid], in test [2], the “activity in the ODC assay (in words)” value is “exhibited activity in the ODC assay”.
Regarding `CCOC(=O)c1ccc(/C=C(\C)c2ccc3c(c2)C(C)(C)CCC3(C)C)cc1` [Ethyl 4-[(E)-2-(1,2,3,4-tetrahydro-1,1,4,4-tetramethyl-6-naphthyl)-1-propen-1-yl]benzoate], the “Inhibition … % Inhibition of Control” value in the test on Ornithine Decarboxylase (Dose 1.7 nmol) and in the test on Ornithine Decarboxylase (Dose 17 nmol) was 86% each time. The “activity in the ODC assay (in words)” value in test [2] is on record as “exhibits activity in the ODC assay”.
On to `CCOC(=O)c1ccc2cc(-c3ccc4c(c3)C(C)(C)CCC4(C)C)ccc2c1` [Ethyl 6-(1,2,3,4-tetrahydro-1,1,4,4-tetramethyl-6-naphthyl)-2-naphthoate], for which the “Inhibition … % Inhibition of Control” value in the test with Ornithine Decarboxylase (Dose 1.7 nmol) is given as 50%; in the test on Ornithine Decarboxylase (Dose 17 nmol) it was 75%.
On to `CC1=C(/C=C/C(C)=C/C=C/C(C)=C/C(=O)O)C(C)(C)CCC1` [Retinoic Acid], for which the “Inhibition … % Inhibition of Control” value in the test on Ornithine Decarboxylase (Dose 17 nmol) is on record as 87-91%. The “Reversal of Keratinization in Hamster Tracheal Organ Culture, Active Cultures (%)” value worked out at 100% in test [1] (Conc 10^-8 M), 88% in test [1] (Conc 10^-9 M) and 52% in test [1] (Conc 10^-10 M). Moreover, the “Reversal of Keratinization in Hamster Tracheal Organ Culture, Active/Total Cultures” value is on record as 236/236 in test [1] (Conc 10^-8 M), 419/474 in test [1] (Conc 10^-9 M) and 134/256 in test [1] (Conc 10^-10 M).
